Experimental findings from patent publication US20250186403A1 (ARIZONA BOARD OF REGENTS ON BEHALF OF THE UNIVERSITY OF …, priority 2022, published 2025) are described below.

As a reminder, the t½ is the time needed for the level to fall by half in the phase considered. High values mean slow decline, low ones rapid decline. A word on the Tmax: it is the time from dosing to the highest level. The term Cmax denotes the highest concentration seen after dosing.

For data set [1], the system named is recombinant Cne-Prp8 intein. The data set can be described thus: Thermal shift assay. The format is binding, Cryptococcus neoformans. Here is the method:
The Tm values were calculated by Thermal shift software. […] The assay was repeated three times. […]
Each treatment was done in quadruplicate. The mixture was incubated at room temperature for an hour before transferring to the QuantStudio 5 real-time PCR system (Applied Biosystems) and run with an increasing temperature from 20° C. to 90° C. The temperature at which there was 50% of the peak fluorescence (50% denaturation) was considered as Tm. The analysis was done using the Thermal Shift Assay software (Thermo Fischer Scientific). A graph was drawn using the GraphPad prism Version 9.1.0 after normalizing the fluorescent values. The treatment groups were compared with Student's t-test.

Data set [2] is described as follows: Pharmacokinetics in mice. The format is in vivo. To be noted: 40 mg/kg BW oral gavage, male C57BL/6 mice, plasma. Here is the method: Blood samples were collected at 0, 0.5, 1, 2, 4, 8, 12, 16, 24, and 36 h after oral gavage. […] Other PK parameters are in Table 4. The values represent means±SD. […] On day 0, mice were infected with H99 (10^7 cells/mice) intranasally or mock-infected with PBS. Mice were euthanized on day 5, and lungs were dissected out, homogenized in RPMI-1640-MOPS media, and plated onto Sabouraud dextrose agar plates containing antibiotics. Plates were incubated at 30° C. for 72 h, and colonies were counted. […] VC: Vehicle control, (90% corn oil, 10% DMSO). Dpi: Days post-infection. CFU: Colony-forming units.
Pharmacokinetics in mice: C57BL/6 mice (male, 2-3 months old) were obtained from breeding stocks maintained at the University of Arizona. All mice were housed under conditions of controlled temperature (22° C.) with the on-off light cycle, food, and water provided ad libitum and were fasted for 12 h before administration of the compound. […] Blood samples were collected from the tail vein using heparinized capillary tubes at 0, 0.5, 1, 2, 4, 8, 12, 16, 24, and 36 h after oral gavage. Plasma was separated and stored at −30° C. until use. For extraction of the compound, 5 μl of plasma from each mouse were mixed with 30 μL methanol and 10 μl of internal standard (IS; UAWJ102 50 ng/ml). The mixture was vortexed for 30 seconds and diluted with 760 µL Milli Q water, and loaded onto an ISOLUTER C18 SPE Columns (1 ml/100 mg, Biotage, Salem, NH) pre-conditioned with 1 ml methanol followed by 1 ml water, and the cartridge was then washed with 1 ml water. The analytes were finally eluted from the cartridges with 1 ml methanol containing 5% ammonia solution, dried with nitrogen, and reconstituted in 100 μl methanol.
The analyte was detected and quantified using LC-MS (Agilent 1290 UPLC system Agilent Technologies, Santa Clara, CA) and a Sciex Qtrap6500+ Mass Spectrometer (AB SCIEX, Framingham, MA). Analytes were separated on an EclipsePlus C18 column (2.1×50 mm, 1.8 μm, Agilent) at a temperature of 35° C., with mobile phase A containing 0.1% formic acid (v/v) in water and mobile phase B containing 0.1% formic acid (v/v) in methanol. Elution was at a flow rate of 0.2 mL/min as follows: 10% B (0-0.5 min), 10% B→95% B (0.5-3.5 min), 95% B (3.5-7 min), […] (7-7.1 min), 10% B (7.1-10 min). The MS was operated in the positive ion mode, using electrospray ionization. The ion spray voltage and temperature were set at 5000 V and 500° C., respectively. Curtain gas, ion source gas 1, and ion source gas 2 were set at 25, 50, 50 psi, respectively.

On to `CNc1ccc2oc(C[C@H]3O[C@@]4(CC[C@H]3C)O[C@H]([C@H](C)C(=O)c3ccc[nH]3)[C@H](C)C[C@H]4C)nc2c1C(=O)O` [CMN, calcimycin], for which, in data set [1] (1.2 µM CMN), the “ΔTm difference between CMN and DMSO” value is 3 °C. Also, the “Tm of CnePrp8 intein” value in data set [1] (with 1.2 µM CMN (DMSO control 50.8±0.2)) came to 53.8±0.2 °C. Moreover, the t½ in data set [2] (mean ± S.D. n = 5) came out at 7.2 h. Further, the Tmax in data set [2] (male, C57BL/6, mouse, po, 40 mg/kg, mean ± S.D. n = 5) is about 10 h. Also, the half-life in data set [2] (male, C57BL/6, mouse, po, 40 mg/kg, mean ± S.D. n = 5, read-out: t½ (converted)) is 7.6 h. The same molecule returned a maximum concentration (Cmax) in data set [2] (mouse, mean ± S.D. n = 5) of 301 ng/mL.
